Here are results for three compounds from patent publication US8198317B2, “Methylenedioxy phenolic compounds and their use to treat disease” (The Ohio State University Research Foundation, priority 2008, dated 2012).

One assay relates to Patient. Kind of assay: Treatment of a patient with chronic myocardial infarction (Example 19). The conditions noted are these: 1.0 to 100 mg/kg with standard therapy. It is filed as in vivo, human. As to the method:
A person with a prior history of a heart attack (myocardial infarction) 1 year ago presents for evaluation. They are asymptomatic. The patient is administered a composition comprising an effective amount of 3,4-Methylenedioxy 6-nitro phenyl lipoate (INV-7465) (1.0 to 100 mg/kg). Alternate therapies include, 3,4-methylenedioxy phenyl acetate (INV 73); 3,4-methylenedioxy-6-nitrophenol (INV 74); 3,4-methylenedioxy-6-nitrophenyl acetate (INV 75); 3,4-Methylenedioxy 6-nitro phenyl lipoate (INV-7465) or 3,4-Methylenedioxy phenyl lipoate (INV-7065). The composition is administered in conjunction with therapy such as aspirin, a drug to reduce the tendency of platelet aggregation, such as clopidogrel bisulfate, a statin, ezetimibe, an angiotensin converting enzyme inhibitor or angiotensin receptor blocker, and other anti-hypertensive agents such as beta-blockers, using dosages known to one of ordinary skill in the art. Patient notes added benefit in total and LDL cholesterol and a reduction in inflammatory markers such as C reactive protein.

The test system of assay [1] is Watanabe Heritable Hyperlipidemic Rabbits (WHHL). Kind of assay: 8-Isoprostane enzyme linked immunoassay in WHHL rabbits. The note with it: vs control groups. Type of assay: in vivo, rabbit. As to the method: […] […] Both samples underwent affinity purification (Cayman Chemical, Ann Arbor, Mich.) and then measurement of 8-isoprostane with the Stat-8-Isoprostane ELISA kit (Cayman Chemical, Ann Arbor, Mich.). […] The protein levels in liver lysates were determined by BCA Protein Assay (Pierce, Rockford, Ill.).

The next assay has as its system Acetyl-CoA Oxidase (ACO). Kind of assay: ACO mRNA (PPARα regulated gene) by RT-PCR in HepG2 cells. The note with it: HepG2, dose dependent and time dependent. Type of assay: cell-based, human. As to the method: ACO is a PPAR-α regulated gene. HepG2 cells were stimulated by INV 75 (100 μM) for the indicated time, the mRNA expression level of ACO was analyzed by real-time RT-PCR. n=3. *, p<0.05 vs 0.
Cells were stimulated with INV-75 for 4 hours, and mRNA expression level of acetyl co-enzyme A oxidase (ACO) analyzed by real-time RT-PCR. n=3. *, p<0.05 vs −8.5.
We used a reporter gene assay in HepG2 cells to screen for agonists of the peroxisome proliferator-activated receptors. Peroxisome proliferator-activated receptors (PPARs) and other members of the nuclear hormone receptor family are important drug targets for the treatment of metabolic diseases. PPARs play crucial roles in lipid and glucose metabolism, respectively. Therefore, screening methods that help to rapidly identify activators of these receptors should be of considerable value. INV-75 activated a classic PPARα gene, Acetyl-CoA Oxidase (ACO) in a dose dependent and time dependent fashion (FIG. 6A). The time course experiment was performed in presence of INV-75 up to 15 hours. […] We next tested the specificity of INV-75 for PPARα by performing experiments in HepG2 cells transfected with yeast GAL4-PPARα-LBD plasmid+UAS-Luciferase; GAL4-PPARδ-LBD plasmid+UAS-Luciferase and GAL4-PPARα-LBD plasmid+UAS-Luciferase. […]

Assay [2] relates to New Zealand White rabbits. Kind of assay: MRI assessment of atherosclerosis in balloon denuded NZW rabbits. It is filed as in vivo, rabbit. The method, then:
(§1) Animal Model: 15 male New Zealand White rabbits (Charles River, Mass.) were fed with high fat diet (HFD) (Harlan Teklad rabbit diet with 0.5% cholesterol, TD 87251). After 4 weeks of high fat diet, rabbits were randomized into three different treatment groups, normal control (n=5), lipoic acid (100 mg/kg/day) (n=5), INV 70-65 (100 mg/kg/day) (n=5). These drugs were administered to the animals via their chow by mixing the drugs with the high fat diet. A fixed amount of chow and drugs admixed in the chow were fed to all animals every day after carefully calculating food intake in each rabbit. Drugs were dissolved in 100% ethanol and sprayed onto the diet and kept under vacuum to let ethanol evaporate overnight. Two (2) weeks after drug or control admixed HFD, all rabbits underwent aortic balloon denudation surgeries followed by 12 weeks of continued administration of drug or controls admixed with HFD. FIG. 29 provides an outline of the experimental design.
MRI experiments were conducted at two time points: 1 week and 12 weeks after the balloon denudation procedure (FIG. 29). […] MR images were analyzed using a Siemens Leonardo Workstation (Siemens Healthcare Inc. Germany).
To assess the different rates of atherosclerosis plaque progression for each rabbit group, the aortic wall was identified in the pre-contrast images at both MRI time points. […] To account for the variable number of slices, for each rabbit a normalized aortic wall volume was calculated.
To assess plaque neovasculature progression in the different treatment groups, only the 12 weeks post balloon denudation MR images were used. […] The signal to noise ratio (SNR) for each slice was calculated as the mean signal obtained from the vessel wall divided by the standard deviation of the noise from a region outside the body. A ratio of the SNR enhancement for each rabbit was obtained by dividing the post and pre contrast calculated SNRs.

Assay [3] concerns New Zealand White rabbits. Kind of assay: Oil Red O staining of abdominal aorta of NZW rabbits. Type of assay: in vivo, rabbit. The method, then: as §1
Hypercholesterolemia and oxidative stress play an important role in the development of atherosclerosis. The rabbits were sacrificed and abdominal aortas were fixed in 4% PFA (paraformaldehyde). The lipid deposition in the aortic wall was then visualized by oil red staining.

Regarding `O=C(CCCCC1CCSS1)Oc1cc2c(cc1[N+](=O)[O-])OCO2` (stereo not shown) [INV-7465, 3,4-Methylenedioxy 6-nitro phenyl lipoate], in the assay on Patient, the “inflammatory markers such as C reactive protein” value is “reduction”; the “total and LDL cholesterol” value is given as “added benefit”.
On to `CC(=O)Oc1cc2c(cc1[N+](=O)[O-])OCO2` [INV-75, 3,4-methylenedioxy-6-nitrophenyl acetate], for which, in assay [1], the “8-Isoprostane production in aortic homogenates” value was “significantly lower” and the “8-Isoprostane production in plasma” value is “significantly lower”. For the same compound, the “Acetyl-CoA Oxidase (ACO) gene activation” value in the assay on Acetyl-CoA Oxidase (ACO) is recorded as “activated”.
`O=C(CCCCC1CCSS1)Oc1ccc2c(c1)OCO2` (stereo not shown) [INV-7065, 3,4-Methylenedioxy phenyl lipoate]: the “gadolinium enhancement of the aorta” value in assay [2] (compared to controls and lipoic acid treatment) is “reduction”. The “plaque burden by MRI” value in assay [2] (high fat diet, 100 mg/kg/day, 12 weeks) is listed as “marked attenuation”. In addition, in assay [3] (NZW), the “reduction in lipid deposition in the aortic wall compared to controls” value is reported as “about 80%” and the “reduction in lipid deposition in the aortic wall compared to lipoic acid” value is reported as “about 40%”. In addition, the “lipid content in the plaque area (Oil Red O) compared to the control group” value in assay [3] (NZW abdominal aorta) is listed as “reduction”.
